Measured values from article PMC12193833, “Toxicity Assessment and Antifungal Potential of Copper(II) and Silver(I) Complexes with 1,10-Phenanthroline-5,6-dione Against Drug-Resistant Clinical Isolates of Cryptococcus gattii and Cryptococcus neoformans” (Journal of Fungi, 2025).
Converted amounts (≈) assume the structure as drawn.

Key:
G. mellonella larvae = system: G. mellonella larvae; parameters: method as in PMID 32265890; settings: cited from earlier work; for Mortality rate in G. mellonella larvae: 750 µg/mL; for Toxicity in G. mellonella larvae: up to 500 µg/mL, within 72 h
[1] = system: C. gattii clinical isolates; assay: MIC/MFC of test compounds, microdilution; format: cell-based, Cryptococcus gattii
Text: (§1) Six clinical isolates belonging to the Cryptococcus genus were obtained from patients who attended the Instituto Nacional de Infectologia Evandro Chagas (INI), Fundação Oswaldo Cruz (FIOCRUZ), and were kindly provided by Dr. Rodrigo Almeida-Paes (INI-FIOCRUZ). To comply with ethical standards and institutional agreements between UFRJ and FIOCRUZ, patient data were not disclosed. In this sense, the C. neoformans isolates were designated CFP00213 (213), CFP00223 (223), and CFP00350 (350), while the C. gattii isolates were labeled CFP00023 (23), CFP00025 (25), and CFP00027 (27). Before each experiment, an aliquot of the culture was transferred from Sabouraud dextrose agar (2% glucose, 1% peptone, and 0.5% yeast extract) to RPMI 1640 medium (Sigma-Aldrich, St. Louis, MO, USA), pH 7.2, buffered with 0.165 M MOPS (Sigma-Aldrich, St. Louis, MO, USA). RPMI medium induces the expression of capsular polysaccharides, the primary virulence factor of Cryptococcus cells. The cultures were incubated at 37 °C for 48 h to promote cell proliferation, stimulate metabolic activation, and enhance capsular development. Yeast cell counts were determined using a Neubauer chamber.
(§2) Following MIC determination, the MFC was assessed by inoculating 10 µL from wells showing no visible fungal growth onto Sabouraud dextrose agar. […] To further support and strengthen the evidence of the anti-Cryptococcus activity of the Cu-phendione and Ag-phendione complexes, we additionally performed MIC/MFC assays using well-characterized standard reference strains: ATCC 28957, H99, T1444 (all C. neoformans), and R265 (C. gattii).

[2] = system: Galleria mellonella larvae; assay: In vivo acute toxicity, single treatment; settings: single inoculation, 125–1000 µM, 10 µL/larva, 37 °C
Experimental: In this set of experiments, G. mellonella larvae weighing approximately 0.2–0.3 g and displaying clear, uniform coloration were used. The larvae were inoculated (10 µL/larva) using an insulin syringe (BD Ultra-Fine, Franklin Lakes, NJ, USA) at the last left proleg. […] We also assessed their coloration through visual analysis as an indicator of stress levels. Throughout the experiments, the larvae were maintained at 37 °C [19, 42]. Two distinct treatment protocols were designed to evaluate the effects of the test compounds on larval survivability, as detailed below.
For the acute toxicity analysis, the test compounds were administered to the larvae in a single inoculation at concentrations ranging from 1000 to 125 μM. Each group consisted of 10 larvae, while the control group received only sterile PBS with 4% DMSO. […] The SI was calculated using the following equation: SI = G. mellonella CC50/Cryptococcus MIC.

[3] = system: C. neoformans clinical isolates; assay: MIC/MFC of test compounds, microdilution; format: cell-based, Cryptococcus neoformans
Text: as §1, §2

[4] = system: six clinical Cryptococcus isolates; assay: Susceptibility to clinically available antifungals, all six isolates; format: cell-based, Cryptococcus neoformans and Cryptococcus gattii; settings: across all six clinical Cryptococcus isolates
Text: as §1
(§3) The susceptibility profile was evaluated using the microdilution method in RPMI 1640 medium buffered with 0.165 M MOPS, following the M27-A3 protocol for yeasts established by the Clinical and Laboratory Standards Institute (CLSI). […] Each fungal isolate was classified as either wild-type or non-wild-type for each antifungal based on the epidemiological cutoff values provided in CLSI M59 ED3, 2020 [32].

[5] = system: C. gattii clinical isolates; assay: Susceptibility to clinically available antifungals, CLSI M27-A3 microdilution; format: cell-based; settings: Cryptococcus gattii
Text: as §1, §3

G. mellonella = settings: cited from earlier work
[6] = system: C. neoformans clinical isolates; assay: Susceptibility to clinically available antifungals, CLSI M27-A3 microdilution; format: cell-based; settings: Cryptococcus neoformans
Text: as §1, §3

[7] = 24 h, C. gattii isolate 23, 37 °C
[8] = 24 h, C. gattii isolate 25, 37 °C
[9] = 24 h, C. gattii isolate 27, 37 °C
[10] = C. gattii isolate 23, value in brackets
[11] = C. gattii isolate 25, value in brackets
[12] = C. gattii isolate 27, value in brackets

## O.O.O.O.O.O.O.O.O.O.O.O.O.O.O.O.O=C([O-])c1cccc(C(=O)[O-])c1.O=C([O-])c1cccc(C(=O)[O-])c1.[Mn+2].[Mn+2].c1cnc2c(c1)ccc1cccnc12.c1cnc2c(c1)ccc1cccnc12.c1cnc2c(c1)ccc1cccnc12.c1cnc2c(c1)ccc1cccnc12.c1cnc2c(c1)ccc1cccnc12 [{[Mn(1,10-phenanthroline)2(H2O)2]}2(isophthalic acid)2(1,10-phenanthroline)·12H2O]
G. mellonella larvae
  Mortality rate in G. mellonella larvae: 13%

## O.O.O.O.O.O.[Cu+2].[O-][Cl+3]([O-])([O-])[O-].[O-][Cl+3]([O-])([O-])[O-] [Cu(ClO4)2.6H2O, copper perchlorate]
[1]; C. gattii isolate 23
  MIC: >100/ND µM
[1]; C. gattii isolate 25
  MIC: >100/ND µM
[1]; C. gattii isolate 27
  MIC: >100/ND µM
[1]; all C. gattii clinical isolates
  MIC: no antifungal activity
[2]
  Larval survival: 100%
[3]; C. neoformans isolate 213
  MIC: >100/ND µM
[3]; C. neoformans isolate 223
  MIC: >100/ND µM
[3]; C. neoformans isolate 350
  MIC: >100/ND µM
[3]; all C. neoformans clinical isolates
  MIC: no antifungal activity

## OC(Cn1cncn1)(Cn1cncn1)c1ccc(F)cc1F [Fluconazole, fluconazole]
[4]
  MIC: ≥ 4 µg/mL
[5]; [7]
  MIC: 32 µg/mL
[5]; [8]
  MIC: 16 µg/mL
[5]; [9]
  MIC: 16 µg/mL
[5]; [10]
  MIC: 104 µM
[5]; [11]
  MIC: 52.2 µM
[5]; [12]
  MIC: 52.2 µM

## {[Mn(3,6,9-trioxoundecanedioic acid)(1,10-phenanthroline)2]·3H2O·EtOH}n
G. mellonella
  RNA levels encoding transferrin and inducible metalloproteinase inhibitor protein (IMPI): increased

## O=C1C(=O)c2cccnc2-c2ncccc21 [Phendione, 1,10-Phenanthroline-5,6-dione]
[1]; C. gattii isolate 23, read-out: MIC
  MIC: 12.5 µM (≈ 2.63 µg/mL)
[1]; C. gattii isolate 25, read-out: MIC
  MIC: 12.5 µM (≈ 2.63 µg/mL)
[1]; C. gattii isolate 27, read-out: MIC
  MIC: 12.5 µM (≈ 2.63 µg/mL)
[1]; Cryptococcus gattii, C. gattii isolate 23
  MFC: > 100 µM
[1]; Cryptococcus gattii, C. gattii isolate 25
  MFC: 100 µM (≈ 21 µg/mL)
[1]; Cryptococcus gattii, C. gattii isolate 27
  MFC: > 100 µM
[1]; Cryptococcus gattii, all C. gattii clinical isolates
  MFC: ≥ 100 µM
[1]; Cryptococcus gattii, all C. gattii clinical isolates, read-out: MIC
  MIC: 12.5 µM (≈ 2.63 µg/mL)
[2]
  Larval survival: 100%
[3]; C. neoformans isolate 213, read-out: MIC
  MIC: 12.5 µM (≈ 2.63 µg/mL)
[3]; C. neoformans isolate 223, read-out: MIC
  MIC: 12.5 µM (≈ 2.63 µg/mL)
[3]; C. neoformans isolate 350, read-out: MIC
  MIC: 12.5 µM (≈ 2.63 µg/mL)
[3]; Cryptococcus neoformans, C. neoformans isolate 213
  MFC: > 100 µM
[3]; Cryptococcus neoformans, C. neoformans isolate 223
  MFC: 100 µM (≈ 21 µg/mL)
[3]; Cryptococcus neoformans, C. neoformans isolate 350
  MFC: 100 µM (≈ 21 µg/mL)
[3]; Cryptococcus neoformans, all C. neoformans clinical isolates
  MFC: ≥ 100 µM
[3]; Cryptococcus neoformans, all C. neoformans clinical isolates, read-out: MIC
  MIC: 12.5 µM (≈ 2.63 µg/mL)

## Nc1[nH]c(=O)ncc1F [Flucytosine, flucytosine]
[5]; [7]
  MIC: 0.125 µg/mL
[5]; [8]
  MIC: 4 µg/mL
[5]; [9]
  MIC: 4 µg/mL
[5]; [10]
  MIC: 0.96 µM
[5]; [11]
  MIC: 30 µM
[5]; [12]
  MIC: 30 µM
[6]; 24 h, C. neoformans isolate 213, 37 °C
  MIC: 4 µg/mL
[6]; 24 h, C. neoformans isolate 223, 37 °C
  MIC: 64 µg/mL
[6]; 24 h, C. neoformans isolate 350, 37 °C
  MIC: 16 µg/mL
[6]; C. neoformans isolate 213, value in brackets
  MIC: 30 µM
[6]; C. neoformans isolate 223, value in brackets
  MIC: 496 µM
[6]; C. neoformans isolate 350, value in brackets
  MIC: 124 µM

## O.O.O=C([O-])c1ccccc1C(=O)[O-].[Mn+2].c1cnc2c(c1)ccc1cccnc12 [[Mn(phthalic acid)(1,10-phenanthroline)(H2O)2]]
G. mellonella larvae
  Mortality rate in G. mellonella larvae: 40%
  Toxicity in G. mellonella larvae: no toxicity

## [Ag+].[O-][Cl+3]([O-])([O-])[O-].c1cnc2c(c1)ccc1cccnc12.c1cnc2c(c1)ccc1cccnc12 [[Ag(1,10-phenanthroline)2]ClO4]
G. mellonella
  Galiomycin expression: increased
  RNA levels encoding transferrin and inducible metalloproteinase inhibitor protein (IMPI): increased
G. mellonella larvae
  Toxicity in G. mellonella larvae: no toxicity
